Reference: patent publication US6534524B1, “Indazole compounds and pharmaceutical compositions for inhibiting protein kinases, and methods for their use” (Agouron Pharmaceuticals, Inc., priority 1999, dated 2003)

System: human umbilical vein endothelial cells (HUVEC)
Experiment: HUVEC proliferation assay (VEGF-stimulated, MTT);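 also: relative to VEGF-stimulated control minus starvation-medium baseline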
Assay type: cell-based
Settings: crude reaction mixtures
Procedure: HUVEC Proliferation Assay
This assay determines the ability of a test compound to inhibit the growth factor-stimulated proliferation of human umbilical vein endothelial cells (“HUVEC”). HUVEC cells (passage 3-4, Clonetics, Corp.) were thawed into EGM2 culture medium (Clonetics Corp) in T75 flasks. Fresh EGM2 medium was added to the flasks 24 hours later. Four or five days later, cells were exposed to another culture medium (F12K medium supplemented with 10% fetal bovine serum (FBS), 60 μg/mL endothelial cell growth supplement (ECGS), and 0.1 mg/mL heparin). Exponentially-growing HUVEC cells were used in experiments thereafter. Ten to twelve thousand HUVEC cells were plated in 96-well dishes in 100 μl of rich, culture medium (described above). The cells were allowed to attach for 24 hours in this medium. The medium was then removed by aspiration and 105 μl of starvation media (F12K+1% FBS) was added to each well. After 24 hours, 15 μl of test agent dissolved in 1% DMSO in starvation medium or this vehicle alone was added into each treatment well; the final DMSO concentration was 0.1%. One hour later, 30 μl of VEGF (30 ng/mL) in starvation media was added to all wells except those containing untreated controls; the final VEGF concentration was 6 ng/mL. Cellular proliferation was quantified 72 hours later by MTT dye reduction, at which time cells were exposed for 4 hours MTT (Promega Corp.).
For screening compound library plates, one or two concentrations (one well per concentration) were employed, and the % inhibition was calculated by the following formula:
% inhibition=(control−test)÷(control−starvation)
% inhibition=(control-treated)/(control-starvation)×100

[1] = Library I, Y = CO, nominal concentration of 10 nM
[2] = Library I, Y = NH, nominal concentration of 10 nM
[3] = Library I, Y = O, nominal concentration of 10 nM
[4] = Library II, Y=S, 0.5 mM (column head; text: nominal 0.5 nM)
[5] = Library II, Y=S, 2 mM (column head; text: nominal 2 nM)

| SMILES | % inhibition of the proliferation of HUVEC [1] | % inhibition of the proliferation of HUVEC [2] | % inhibition of the proliferation of HUVEC [3] | % inhibition of the proliferation of HUVEC [4] | % inhibition of the proliferation of HUVEC [5] |
| --- | --- | --- | --- | --- | --- |
| O=C(Nc1cccnc1)c1ccc2c(-c3nc4ccccc4[nH]3)n[nH]c2c1 | −2% | 17% | 25% |  |  |
| O=C(Nc1ccccc1)c1ccc2c(-c3nc4ccccc4[nH]3)n[nH]c2c1 | 3% | 16% | 24% |  |  |
| O=C(NCCCO)c1ccc2c(-c3nc4ccccc4[nH]3)n[nH]c2c1 | 5% | 16% | 25% |  |  |
| O=C(NCCN1CCOCC1)c1ccc2c(-c3nc4ccccc4[nH]3)n[nH]c2c1 | −1% | 15% | 30% |  |  |
| O=C(Nc1ccncc1)c1ccc2c(-c3nc4ccccc4[nH]3)n[nH]c2c1 | 33% | 13% | 42% |  |  |
| NC(=O)C1CCCN(C(=O)c2ccc3c(-c4nc5ccccc5[nH]4)n[nH]c3c2)C1 (stereo not shown) | 3% | 13% | 36% |  |  |
| CC(=O)NCCNC(=O)c1ccc2c(-c3nc4ccccc4[nH]3)n[nH]c2c1 | 14% | 12% | 90% |  |  |
| COc1ccc(NC(=O)c2ccc3c(-c4nc5ccccc5[nH]4)n[nH]c3c2)cn1 | 81% | 11% | 64% |  |  |
| CC(=O)N1CCN(C(=O)c2ccc3c(-c4nc5ccccc5[nH]4)n[nH]c3c2)CC1 | 5% | 7% | 23% |  |  |
| CC1CN(C(=O)c2ccc3c(-c4nc5ccccc5[nH]4)n[nH]c3c2)CC(C)O1 (stereo not shown) | 21% | 7% | 40% |  |  |
| O=C(c1ccc2c(-c3nc4ccccc4[nH]3)n[nH]c2c1)N1CCCC(CO)C1 (stereo not shown) | 96% | 6% | 134% |  |  |
| O=C(c1ccc2c(-c3nc4ccccc4[nH]3)n[nH]c2c1)N1CCN(C(=O)c2ccco2)CC1 | −20% | 6% | 25% |  |  |
| NC(=O)C1CCN(C(=O)c2ccc3c(-c4nc5ccccc5[nH]4)n[nH]c3c2)CC1 | 44% | 5% | 82% |  |  |
| O=C(Nc1ccc2cn[nH]c2c1)c1ccc2c(-c3nc4ccccc4[nH]3)n[nH]c2c1 | 0% | 2% | 4% |  |  |
| O=C(c1ccc2c(-c3nc4ccccc4[nH]3)n[nH]c2c1)N1CCCC1 | 8% | 0% | 23% |  |  |
| O=C(Nc1ccc2[nH]ncc2c1)c1ccc2c(-c3nc4ccccc4[nH]3)n[nH]c2c1 | 28% | −1% | 80% |  |  |

| SMILES | % inhibition of the proliferation of HUVEC [1] | % inhibition of the proliferation of HUVEC [2] | % inhibition of the proliferation of HUVEC [3] | % inhibition of the proliferation of HUVEC [4] | % inhibition of the proliferation of HUVEC [5] |
| --- | --- | --- | --- | --- | --- |
| O=C(c1ccc2c(-c3nc4ccccc4[nH]3)n[nH]c2c1)N1CCC(O)C1 (stereo not shown) | 10% | −2% | 19% |  |  |
| CC1C(=O)NCCN1C(=O)c1ccc2c(-c3nc4ccccc4[nH]3)n[nH]c2c1 (stereo not shown) | 12% | −3% | 40% |  |  |
| O=C(NC1CCCCC1)c1ccc2c(-c3nc4ccccc4[nH]3)n[nH]c2c1 | 3% | −3% | 46% |  |  |
| C=CCN1CCN(C(=O)c2ccc3c(-c4nc5ccccc5[nH]4)n[nH]c3c2)CC1 | 39% | −4% |  |  |  |
| O=C(c1ccc2c(-c3nc4ccccc4[nH]3)n[nH]c2c1)N1CCCC(O)C1 (stereo not shown) | 37% | −5% | 20% |  |  |
| O=C(c1ccc2c(-c3nc4ccccc4[nH]3)n[nH]c2c1)N1CCOCC1 | 10% | −7% | 59% |  |  |
| CN(CCO)C(=O)c1ccc2c(-c3nc4ccccc4[nH]3)n[nH]c2c1 | 27% | −8% | 48% |  |  |
| CCOC(=O)C1CCCN(C(=O)c2ccc3c(-c4nc5ccccc5[nH]4)n[nH]c3c2)C1 (stereo not shown) | 64% | −8% | 83% |  |  |
| CN(C)C(=O)c1ccc2c(-c3nc4ccccc4[nH]3)n[nH]c2c1 | 35% | −9% | 42% |  |  |
| CCOC(=O)CC(C)NC(=O)c1ccc2c(-c3nc4ccccc4[nH]3)n[nH]c2c1 (stereo not shown) | 31% | −17% | 20% |  |  |
| CN(CC#N)C(=O)c1ccc2c(-c3nc4ccccc4[nH]3)n[nH]c2c1 | 56% | −17% | 17% |  |  |
| CC1(C)CC(NC(=O)c2ccccc2Sc2ccc3c(/C=C/c4ccccn4)n[nH]c3c2)CC(C)(C)N1 |  |  |  | 35% | 10% |
| O=C(NCCN1CCNC1=O)c1ccccc1Sc1ccc2c(/C=C/c3ccccn3)n[nH]c2c1 |  |  |  | 5% | 1% |
| NC(=O)CCNC(=O)c1ccccc1Sc1ccc2c(/C=C/c3ccccn3)n[nH]c2c1 |  |  |  | 8% | 18% |
| CCC(CC)CCCC(C)NC(=O)c1ccccc1Sc1ccc2c(/C=C/c3ccccn3)n[nH]c2c1 (stereo not shown) |  |  |  | 3% | 15% |
